Measured values published in patent US20260295053A1, “COMPOUNDS FOR DEGRADATION AND INHIBITION OF KRAS (G12D) PROTEIN” (Shenzhen Ionova Life Science Co., Ltd., priority 2023, published 2026).

Key:
KRAS (G12D) = target: T1, KRAS (G12D) (Homo sapiens, UniProt P01116, G12D); experiment: KRAS (G12D) cellular degradation assay in AsPC-1 cells; type: cell-based; details: 24 hours, antibody fluorescence (Odyssey CLX), DC50 half-maximal degradation concentration
T1 construct: in-cell western with KRAS G12D antibody after 24 h
T1 sequence (P01116 1-188 isoform P01116-2 G12D): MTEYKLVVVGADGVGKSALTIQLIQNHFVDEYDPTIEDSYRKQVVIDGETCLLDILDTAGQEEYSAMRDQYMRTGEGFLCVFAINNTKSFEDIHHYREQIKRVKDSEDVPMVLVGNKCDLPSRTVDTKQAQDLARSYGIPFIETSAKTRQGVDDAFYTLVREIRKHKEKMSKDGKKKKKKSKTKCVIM
Procedure, shortened: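 AsPC-1 cells were seeded at 22,000/well for degradation and 3,500/well for proliferation. Compounds in 1:3 dilutions ([…] to 1.5 nM final) ran 24 h for degradation, read by in-cell immunofluorescence of KRAS G12D normalised to β-actin, and 6 days for proliferation (CellTiter Glo luminescence). DC50/IC50 came from dose-response fits.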

AsPC-1 cells = experiment: AsPC-1 cell proliferation assay (CellTiter Glo); type: cell-based; details: 6 days
Experimental: ASPC-1 and PK-59 cellular assays ASPC-1 (ATCC cat. CRL-1682) and PK-59 (Nanjing Cobioer, Cat. No. CBP61184) were used in KRAS cellular degradation, pERK inhibition and proliferation assays. The two cell lines were maintained following vendor's instructions. For monitoring KRAS (G12D) cellular degradation and pERK biomarker inhibition, cells were seeded into a 96-well plate with 22,000 and 16,000 cells/well for assays in ASPC-1 and PK-59, respectively. Cells were incubated at 37° C. with 5% CO2 and cell density was monitored until ^~90% confluency was reached. Compounds were serially diluted at a 1:3 ratio and dispensed into each well at final concentrations ranging from […] to 1.5 nM. After incubation for 24 hours, the culture media were removed and the cells were subjected to fixation, permeabilization and blocking (Intercept blocking buffer, Li-cor). For KRAS (G12D) degradation, the cells were treated with primary antibody (KRAS G12D antibody, Cell Signaling Technologies, Cat. No. CST14429) and for β-actin (β-actin mAb, Beyotime, Cat. No. AF-5001), and followed by secondary antibodies, Anti-rabbit IgG (H+L) (DyLight™ 800 4×PEG Conjugate) or IRDye® 680RD Goat anti-Mouse IgG. For pERK inhibition assay, cells were treated with primary antibodies for pERK (Phospho-p44/42 MAPK (Erk1/2) (Thr202/Tyr204) (D13.14.4E) XP® Rabbit mAb, Cell Signaling Technologies, Cat. No. CST-4370) and β-actin (β-actin mAb, Beyotime, Cat. No. AF-5001), and followed by secondary antibodies, Anti-rabbit IgG (H+L) (DyLight™ 800 4×PEG Conjugate) or IRDye® 680RD Goat anti-Mouse IgG. Fluorescence signals were read on Odyssey CLX instrument. For cell proliferation assays, cells were seeded into a 96-well plate at 3,500 and 800 cells/well for assays in ASPC-1 and PK-59, respectively. Cells were incubated at 37° C. with 5% CO2 for overnight. Compounds were serially diluted at a 1:3 ratio and dispensed into each well at final concentrations ranging from […] to 1.5 nM. After incubation for 6 days, cell viability reagent (CellTiter Glo, Promega, Cat. No. G7573) was added to each well and luminescence was recorded on Molecular Devices Spectramax iD3 instrument. IC50, half-maximal inhibitory concentration for pERK inhibition or cell proliferation, and DC50, half-maximal degradation concentration in KRAS (G12D) cellular degradation were determined by fitting the corresponding dose response curves using GraphPad Prism software.
Wherein “A” means the value <10 nM, “B” means 10 nM<the value <100 nM, “C” means 100 nM<the value <1000 nM, and “D” means the value >1000 nM, in which, the value means the value of DC50 or IC50. NT means not tested.

Compound CCn1nccc1-c1ccc([C@H](CO)NC(=O)[C@@H]2C[C@@H](O)CN2C(=O)[C@H](C(C)C)n2cc(-c3ccc(COc4c(-c5c(C)c(F)cc6[nH]ncc56)c(C5CC5)cc5c(N6C[C@H]7C[C@@H]6CN7)nc(OC[C@H](C)OC)nc45)cc3)nn2)cc1 (single isomer, unassigned) [Example 1A] has a DC50 (KRAS (G12D)) of less than 10 nM and an IC50 (AsPC-1 cells) of less than 10 nM.
Compound CCn1nccc1-c1ccc([C@H](CO)NC(=O)[C@@H]2C[C@@H](O)CN2C(=O)[C@H](C(C)C)n2cc(-c3ccc(COc4c(-c5c(C)c(F)cc6[nH]ncc56)c(C5CC5)cc5c(N6C[C@H]7C[C@@H]6CN7)nc(OC[C@H](C)OC)nc45)cc3)nn2)cc1 (single isomer, unassigned) [Example 1B] has a DC50 (KRAS (G12D)) greater than 1000 nM and an IC50 (AsPC-1 cells) greater than 1000 nM.
Work on CO[C@@H](C)COc1nc(N2C[C@H]3C[C@@H]2CN3)c2cc(C3CC3)c(-c3c(C)c(F)cc4[nH]ncc34)c(OCc3ccc(-c4cn([C@H](C(=O)N5C[C@H](O)C[C@H]5C(=O)N[C@@H](CO)c5ccc(-c6scnc6C)cc5)C(C)C)nn4)cc3)c2n1 (single isomer, unassigned) [Example 2A] yielded a DC50 (KRAS (G12D)) of less than 10 nM and an IC50 (AsPC-1 cells) of less than 10 nM.
For CO[C@@H](C)COc1nc(N2C[C@H]3C[C@@H]2CN3)c2cc(C3CC3)c(-c3c(C)c(F)cc4[nH]ncc34)c(OCc3ccc(-c4cn([C@H](C(=O)N5C[C@H](O)C[C@H]5C(=O)N[C@@H](CO)c5ccc(-c6scnc6C)cc5)C(C)C)nn4)cc3)c2n1 (single isomer, unassigned) [Example 2B], the DC50 (KRAS (G12D)) was greater than 1000 nM and the IC50 (AsPC-1 cells) was greater than 1000 nM.
Compound CO[C@@H](C)COc1nc(N2C[C@H]3C[C@@H]2CN3)c2cc(C3CC3)c(-c3c(C)c(F)cc4[nH]ncc34)c(OCc3ccc(-c4cn([C@H](C(=O)N5C[C@H](O)C[C@H]5C(=O)N[C@@H](C)c5ccc(-c6scnc6C)cc5)C(C)C)nn4)cc3)c2n1 (single isomer, unassigned) [Example 3A] has a DC50 (KRAS (G12D)) of less than 10 nM and an IC50 (AsPC-1 cells) of 10 to 100 nM.
With CO[C@@H](C)COc1nc(N2C[C@H]3C[C@@H]2CN3)c2cc(C3CC3)c(-c3c(C)c(F)cc4[nH]ncc34)c(OCc3ccc(-c4cn([C@H](C(=O)N5C[C@H](O)C[C@H]5C(=O)N[C@@H](C)c5ccc(-c6scnc6C)cc5)C(C)C)nn4)cc3)c2n1 (single isomer, unassigned) [Example 3B] the DC50 (KRAS (G12D)) was greater than 1000 nM and the IC50 (AsPC-1 cells) was greater than 1000 nM.
CCn1nccc1-c1ccc([C@H](C)NC(=O)[C@@H]2C[C@@H](O)CN2C(=O)[C@H](C(C)C)n2cc(-c3ccc(COc4c(-c5c(C)c(F)cc6[nH]ncc56)c(C5CC5)cc5c(N6C[C@H]7C[C@@H]6CN7)nc(OC[C@H](C)OC)nc45)cc3)nn2)cc1 (single isomer, unassigned) [Example 4A] gave a DC50 (KRAS (G12D)) of less than 10 nM and an IC50 (AsPC-1 cells) of 10 to 100 nM.
CCn1nccc1-c1ccc([C@H](C)NC(=O)[C@@H]2C[C@@H](O)CN2C(=O)[C@H](C(C)C)n2cc(-c3ccc(COc4c(-c5c(C)c(F)cc6[nH]ncc56)c(C5CC5)cc5c(N6C[C@H]7C[C@@H]6CN7)nc(OC[C@H](C)OC)nc45)cc3)nn2)cc1 (single isomer, unassigned) [Example 4B] gave a DC50 (KRAS (G12D)) greater than 1000 nM and an IC50 (AsPC-1 cells) greater than 1000 nM.
Compound CO[C@@H](C)COc1nc(N2C[C@H]3C[C@@H]2CN3)c2cc(C3CC3)c(-c3c(C)c(F)cc4n[nH]cc34)c(OCc3ccc(-c4cn([C@H](C(=O)N5C[C@H](O)C[C@H]5C(=O)N[C@@H](CO)c5ccc(-c6c(C)noc6C)cc5)C(C)C)nn4)cc3)c2n1 (single isomer, unassigned) [Example 6A] has a DC50 (KRAS (G12D)) of 10 to 100 nM and an IC50 (AsPC-1 cells; Homo sapiens, ASPC1, 144 h) of 10 to 100 nM.
CCn1nccc1-c1ccc(CNC(=O)[C@@H]2C[C@@H](O)CN2C(=O)[C@H](C(C)C)n2cc(-c3ccc(COc4c(-c5c(C)c(F)cc6[nH]ncc56)c(C5CC5)cc5c(N6C[C@H]7C[C@@H]6CN7)nc(OC[C@H](C)OC)nc45)cc3)nn2)cc1 (single isomer, unassigned) [Example 7A] showed a DC50 (KRAS (G12D)) of 10 to 100 nM and an IC50 (AsPC-1 cells; Homo sapiens, ASPC1, 144 h) of 10 to 100 nM.
In the case of CCn1nccc1-c1ccc([C@H](CO)NC(=O)[C@@H]2C[C@@H](O)CN2C(=O)[C@H](C(C)C)n2cc(-c3ccc(COc4c(-c5c(C)c(F)cc6[nH]ncc56)c(C5CC5)cc5c(N6CC7CCC(C6)N7)nc(OC[C@H](C)OC)nc45)cc3)nn2)cc1 (single isomer, unassigned) [Example 8], the DC50 (KRAS (G12D)) is reported as 10 to 100 nM and the IC50 (AsPC-1 cells) is reported as 10 to 100 nM.
CCn1nccc1-c1ccc([C@H](CO)NC(=O)[C@@H]2C[C@@H](O)CN2C(=O)[C@H](C(C)C)n2cc(-c3ccc(COc4c(-c5c(C)c(F)cc6[nH]ncc56)c(C5CC5)cc5c(N6CC7CCC(C6)N7)nc(OC[C@H](C)OC)nc45)cc3)nn2)cc1 (single isomer, unassigned) [Example 9] was tested, and the DC50 (KRAS (G12D)) was 10 to 100 nM and the IC50 (AsPC-1 cells) was greater than 1000 nM.
Work on CO[C@@H](C)COc1nc(N2C[C@H]3C[C@@H]2CN3)c2cc(C3CC3)c(-c3c(C)c(F)cc4[nH]ncc34)c(OCc3ccc(-c4cn([C@H](C(=O)N5C[C@H](O)C[C@H]5C(=O)NCc5ccc(-c6scnc6C)cc5)C(C)C)nn4)cc3)c2n1 (single isomer, unassigned) [Example 11A] yielded a DC50 (KRAS (G12D)) of 10 to 100 nM and an IC50 (AsPC-1 cells; Homo sapiens, ASPC1, 144 h) of 10 to 100 nM.
For CO[C@@H](C)COc1nc(N2CC3CCC(C2)N3)c2cc(C3CC3)c(-c3c(C)c(F)cc4[nH]ncc34)c(OCc3ccc(-c4cn([C@H](C(=O)N5C[C@H](O)C[C@H]5C(=O)N[C@@H](CO)c5ccc(-c6scnc6C)cc5)C(C)C)nn4)cc3)c2n1 (single isomer, unassigned) [Example 12A], the DC50 (KRAS (G12D)) was 10 to 100 nM and the IC50 (AsPC-1 cells; Homo sapiens, ASPC1, 144 h) was 10 to 100 nM.
For CCn1nccc1-c1ccc([C@H](CO)NC(=O)[C@@H]2C[C@@H](O)CN2C(=O)[C@H](C(C)C)n2cc(-c3ccc(COc4c(-c5c(C)c(F)cc6[nH]ncc56)c(C5CC5)cc5c(N6CC7CCC(C6)N7)nc(OC[C@H](C)OC)nc45)cc3)nn2)cc1 (single isomer, unassigned) [Example 13A], the DC50 (KRAS (G12D)) was 10 to 100 nM and the IC50 (AsPC-1 cells; Homo sapiens, ASPC1, 144 h) was 10 to 100 nM.
In the case of CCn1nccc1-c1ccc([C@H](CO)NC(=O)[C@@H]2C[C@@H](O)CN2C(=O)[C@H](C(C)C)n2cc(-c3ccc(COc4c(-c5c(C)c(F)cc6[nH]ncc56)c(C5CC5)cc5c(N6C[C@H]7C[C@@H]6CN7)nc(OC6CCOCC6)nc45)cc3)nn2)cc1 (stereo in doubt) [Example 10, (2S,4R)-1-((2S)-2-(4-(4-(((4-((1R,4R)-2,5-diazabicyclo[2.2.1]heptan-2-yl)-6-cyclopropyl-7-(6-fluoro-5-methyl-1H-indazol-4-yl)-2-((tetrahydro-2H-pyran-4-yl)oxy)quinazolin-8-yl)oxy)methyl)phenyl)-1H-1,2,3-triazol-1-yl)-3-methylbutanoyl)-N—((R)-1-(4-(1-ethyl-1H-pyrazol-5-yl)phenyl)-2-hydroxyethyl)-4-hydroxypyrrolidine-2-carboxamide], the DC50 (KRAS (G12D)) is reported as 10 to 100 nM and the IC50 (AsPC-1 cells; Homo sapiens, ASPC1, 144 h) is reported as 10 to 100 nM.
In the case of CCn1nccc1C#CC(CO)NC(=O)[C@@H]1C[C@@H](O)CN1C(=O)[C@H](C(C)C)n1cc(-c2ccc(COc3c(-c4c(C)c(F)cc5[nH]ncc45)c(C4CC4)cc4c(N5C[C@@H]6C[C@H]5CN6)nc(OC[C@H](C)OC)nc34)cc2)nn1 (stereo in doubt) [Example 34, (2S,4R)-1-((2S)-2-(4-(4-(((4-((1S,4S)-2,5-diazabicyclo[2.2.1]heptan-2-yl)-6-cyclopropyl-7-(6-fluoro-5-methyl-1H-indazol-4-yl)-2-((S)-2-methoxypropoxy)quinazolin-8-yl)oxy)methyl)phenyl)-1H-1,2,3-triazol-1-yl)-3-methylbutanoyl)-N—((R)-4-(1-ethyl-1H-pyrazol-5-yl)-1-hydroxybut-3-yn-2-yl)-4-hydroxypyrrolidine-2-carboxamide], the DC50 (KRAS (G12D)) is reported as less than 10 nM and the IC50 (AsPC-1 cells; Homo sapiens, ASPC1, 144 h) is reported as less than 10 nM.
